For data set [1], the system named is Saccharomyces cerevisiae strain ATCC 201388. Nature of the data set: MIC (NCCLS M27, YPD or synthetic defined media), haploid parental strain. The settings on record: Saccharomyces cerevisiae, read-out: MIC. It counts as cell-based. How it is done: The haploid Saccharomyces cerevisiae strain ATCC 201388 was used in the selection of C10 resistant mutants. Spontaneous and EMS-induced resistant mutants were isolated from YPD agar plates containing 4×, 8×, 16×MIC of C10. All minimal inhibitory concentrations (MIC) were determined using NCCLS protocol M27 with the exception of using YPD or synthetic defined media. All yeast and molecular genetic manipulations were essentially performed as described by Guthrie C., et al., Methods in Enzymology, 350: Part B, (2002).
The minimal inhibitory concentration (MIC) was essentially performed following the NCCLS guidelines outlined in the M27 protocol with the exception of using YPD or synthetic defined media (SDM).

The test system of data set [2] is T. rubrum. Nature of the data set: MIC in the presence of 5% keratin powder. The class given is cell-based, Trichophyton rubrum. How it is done:
Many antifungal agents strongly bind to keratin which not only reduces their antifungal potency but also may restrict their penetration into the nail. The affinities of the compounds for keratin powder was determined by a method described in Tatsumi, Antimicrobial Agents and Chemotherapy, 46(12):3797-3801 (2002).
(C10) is a novel compound in development for use as a topical antifungal treatment. The purpose of this study was to determine the minimum inhibitory concentration (MIC) for (C10) against 19 test strains of fungi including: Aspergillus fumigatus (A. fumigatus), Candida Albicans (C. albicans, both fluconazole sensitive and resistant strains), Candida glabrata (C. glabrata), Candida krusei (C. krusei), Cryptococcus neoformans (C. neoformans), Candida parapsilosis (C. parapsilosis), Candida tropicalis (C. tropicalis), Epidermophyton floccosum (E. floccosum), Fusarium solani (F. solani), Malassezia furfur (M. furfur), Malassezia pachydermatis (M. pachydermatis), Malassezia sympodialis (M. sympodialis), Microsporum audouinii (M. audouinii), Microsporum canis (M. canis), Microsporum gypseum (M. gypseum), Trichophyton mentagrophytes (T. mentagrophytes), Trichophyton rubrum (T. rubrum), Trichophyton tonsurans (T. tonsurans). Fungal growth was evaluated after exposure to different concentrations of (C10). […]

Data set [3] in a line: Nail penetration, 14-day dosing of radiolabeled compound (Hui protocol). The class given is in vitro ADME. How it is done:
Two nail penetration studies were performed based on the protocol in Hui et al., Journal of Pharmaceutical Sciences, 91(1): 189-195 (2002) (“Hui protocol”). The purpose of this study was to determine and compare the penetration and distribution of C10 in vehicle into the human nail plate in vitro relative to 8% ciclopirox w/w in commercial lacquer (Penlac®).
The study was composed of two groups. The compositions (weight %) of the dosage formulations are as follows: […]
Healthy human finger nail plates were collected from adult human cadavers and stored in a closed container at 0-4° C. Before the experiment, the nail plates were gently washed with normal saline to remove any contamination, then re-hydrated by placing them for three hours on a cloth wetted with normal saline. The nail samples were randomly selected into four groups.
Radioactivity of each group is approximately 0.19±0.01 and 0.22±0.03 μCi/10 μL solutions respectively, for ^14C—C10 (group A), and ^14C-ciclopirox (group C).
Surface washing was started in morning 10 min prior to next dosing, the surface of the nail was washed with cotton tips in a cycle, as follows:
A Teflon one-chamber diffusion cell (PermeGear, Inc., Hellertown, Pa.) was used to hold each nail. To approximate physiological conditions, a small cotton ball wetted with 0.1 mL normal saline was placed in the chamber to serve as a nail bed and provide moisture for the nail plate. Every 3 days, 0.1 mL normal saline was injected through the inlet into the chamber to keep the cotton ball wet. The nail plate was placed on a ledge inside the receptor (1.0 cm in diameter and 0.5 cm high). The ventral (inner) surface of the nail was placed face down and rested on the wet cotton ball. The cells were placed on a platform in a large glass holding tank filled with saturated sodium phosphate solution to keep the cells at a constant humidity of 40%.
After completion of the incubation phase, the nail plate was transferred from the diffusion cell to a clean copper nail holder for sampling process. The nail plate was inverted so that the ventral (nail bed) surface now faced up and the dorsal (outer) dosed surfaced faced down. The copper nail holder has an opening as it sits on top of the stage. When the sampling process initiated, the coarse adjustment was adjusted to move the position of the stage until the nail plate was just touching the tip of the cutter. Then the drill was turned on and the fine adjustment was turned to push the stage closer to the drill, removing a nail core sample. After the above process, approximate 0.40-0.50 mm in depth and 7.9 mm in diameter nail pulverized samples were harvested from the center of the ventral (nail bed) surface of the nail.
The powdered nail samples were collected into a glass scintillation vial and weighted. Aliquots of 5.0 mL Packard soluene-350 (Packard Instrument Company, Meriden, Conn.) was added to the scintillation vial to dissolve the powder. The upper part, the intermediate and dorsal layers of the center of the nail, including the area of application of the dose was cut in the same diameter as the sampled area and was then placed into a glass scintillation vial with 5.0 mL packard soluene-350. The rest of the nail was also placed in a glass scintillation vial with 5.0 mL packard soluene-350.
All radioactivity measurements were conducted with a Model 1500 Liquid Scintillation Counter (Packard Instrument Company, Downer Grove, Ill.). The counter was audited for accuracy using sealed samples of quenched and unquenched standards as detailed by the instrument manual. The ^14C counting efficiency is equal to or greater than 95%. All nail samples pre-treated with packard soluene-350 were incubated at 40° C. for 48 hours followed by the addition of 10 mL scintillation cocktail (HIONIC-FLUOR, Packard Instrument Company, Meriden, Conn.). […]

Converted amounts (≈) assume the structure as drawn. Where two headings read alike, the source gives them in different places.

Broadly, the MIC is the lowest concentration found to suppress growth. In the case of `OB1OCc2cc(F)ccc21` [C10, 5-fluorobenzo[c][1,2]oxaborol-1(3H)-ol], the MIC in data set [1] (ATCC201388, Table 1, haploid strain ATCC201388) is 0.5 µg/mL (≈ 3.29 µM). The MIC in data set [1] (ATCC201388, Table 2, ATCC201388) was 0.5 µg/mL (≈ 3.29 µM). For the same compound, in data set [2], the “effect of addition of 5% keratin powder to the media on MIC” value is listed as “did not effect the MIC”. Further, in data set [3], the “absolute amount of drug equivalent per cotton ball sample versus ciclopirox” value is “significantly higher”; the “amount of equivalent in ventral/intermediate center of the nail layer and cotton ball supporting bed versus group C (ciclopirox)” value is reported as “statistically higher”. Moreover, the “weight normalized concentration of drug equivalent in nail samples versus ciclopirox equivalent” value in data set [3] (dorsal/intermediate center, ventral/intermediate center and remainder nail, 14-day treatment, p≦0.002) is on record as “significantly higher”. Also, in data set [3] (human, 14 day), the “Cumulative radioactivity recoveries of carbon-14” value is given as 88±9.21% of applied dose and the “difference of the two test chemicals in cotton ball supporting bed (C10 versus ciclopirox)” value turned out to be 250 times.
